In the supplement of paper PMC11061612 one finds Bliss excess data, which are given here for 7 compounds.

Assay in all cases: Bliss excess, mean over the matrix (fraction); higher = more synergy
The test system of assay [1] is NCI-H1573 (Lung Adenocarcinoma). The essentials:
(§1)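 After 24 hours at 37°C and 5% CO2 in 1536-well plates, cells in DMEM/F12 or RPMI plus 10% FBS received two-drug dose matrices for 72 hours. Viability came from CellTiter-Glo 2.0 luminescence and was scaled as inhibition, anchored at 0 by vehicle wells and at 1 by blank wells. Combination Emax is taken as the second-highest inhibition in the matrix, and Bliss excess as the observed combination effect less EA + EB − EA·EB, with EA and EB the single-agent effects.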

The test system of assay [2] is GI-1 (Glioblastoma). The essentials:
as §1

Assay [3] deals with HC-1 (Other Blood Carcinomas). The procedure, abridged:
as §1

In assay [4] the test system is NCI-H513 (Other Solid Carcinomas). The procedure, abridged: as §1
The subject of assay [5] is PF-382 (T-Lymphoblastic Leukemia). The procedure, abridged:
as §1

Assay [6] has as its system BT-20 (Breast Carcinoma). The procedure, abridged:
as §1

The test system of assay [7] is A704 (Kidney Carcinoma). The essentials: as §1
In assay [8] the test system is HSC-2 (Oral Cavity Carcinoma). The essentials:
as §1

Assay [9] relates to EW-3 (Ewing's Sarcoma). The essentials: as §1
Assay [10] has as its system LOU-NH91 (Squamous Cell Lung Carcinoma). The procedure, abridged:
as §1

The subject of assay [11] is NCI-N87 (Gastric Carcinoma). The procedure, abridged:
as §1

For assay [12], the system named is KP-2 (Pancreatic Carcinoma). The procedure, abridged: as §1
The subject of assay [13] is SNU-C1 (Colorectal Carcinoma). The essentials: as §1
In assay [14] the test system is RPMI-7951 (Melanoma). The procedure, abridged: as §1
Assay [15] concerns LC4-1 (B-Lymphoblastic Leukemia). The procedure, abridged: as §1
Assay [16] concerns IMR-5 (Neuroblastoma). The essentials: as §1
Assay [17] relates to OCUM-1 (Gastric Carcinoma). The procedure, abridged:
as §1

In assay [18] the test system is DG-75 (Burkitt's Lymphoma). The procedure, abridged: as §1
Assay [19] has as its system NCI-H2405 (Lung Adenocarcinoma). The procedure, abridged: as §1
For assay [20], the system named is U-87-MG (Glioblastoma). The procedure, abridged:
as §1

In the case of `CC1(C)CCC(CN2CCN(c3ccc(C(=O)NS(=O)(=O)c4ccc(NCC5CCOCC5)c([N+](=O)[O-])c4)c(Oc4cnc5[nH]ccc5c4)c3)CC2)=C(c2ccc(Cl)cc2)C1` [Venetoclax] + Cc1cc2ncnn2cc1Nc1ncc2c(n1)n(C1CCOCC1)c(=O)n2C [AZD7648] (first compound max 1 µM, 7x7, partner max 10 µM), the Bliss excess is -0.0242 in assay [1]; 0.0369 in [2]; -0.02 in assay [3]; -0.0321 in assay [4]; -0.0134 in assay [5]; -0.0229 in [6]. Besides, the Bliss excess is -0.0215 in [7]; -0.0177 in [8]; 0.0149 in assay [9]; -0.0202 in [10]; -0.0609 in assay [11]; -0.0577 in [12]. For the same compound, the Bliss excess in assay [13] is -0.0259; in assay [14] it was -0.0226; in [15] it was 0.0187; in assay [16], -0.0038; in assay [17] it was -0.0144; in assay [18] it was -0.0157. The Bliss excess in [19] is -0.0492; in assay [20] it was -0.0832.

Take `COc1nnc2ccc(N3CCC(c4ccc(OCCN5CCN(C)C(=O)[C@H]5C)cc4)CC3)nn12` [AZD5153] + CN(CC[C@H](CSC1=CC=CC=C1)NC2=C(C=C(C=C2)S(=O)(=O)NC(=O)C3=CC=C(C=C3)N4CCC(CC4)[C@H](C5=CC=CC=C5C6=CC=C(C=C6)Cl)O)S(=O)(=O)C(F)(F)F)CCO [AZD4320] (first compound max 1 µM, 7x7, partner max 1 µM): the Bliss excess in assay [1] is 0.0178; in assay [3] it was -0.0468; in [4], -0.0177; in assay [5], 0.0343; in assay [6] it was -0.0001; in assay [7], 0.0754. Besides, the Bliss excess in [10] was -0.0215; in assay [12], 0.0546; in [14], 0.0467; in [16] it was 0.0807; in assay [18] it was -0.0557; in assay [19] it was 0.0342. Besides, the Bliss excess in [20] is 0.099.

Regarding `C[C@@H](c1ccc2nccn2c1)n1nnc2ncc(-c3cnn(C)c3)nc21` [Savolitinib] + Cc1c2c(nn1C)CSCc1cc(n(C)n1)CSc1cc(c3ccccc3c1)OCCCc1c(C(=O)O)n(C)c3c-2c(Cl)ccc13 [AZD5991] (first compound max 1 µM, 7x7, partner max 1 µM), the Bliss excess in assay [1] was -0.036; in assay [2], 0.0227; in assay [3] it was -0.0199; in [4] it was -0.0733; in [5], -0.0272; in assay [6], -0.0135. Besides, the Bliss excess in assay [7] was -0.0508; in [8], -0.0493; in assay [9] it was -0.0011; in [10], -0.0328; in assay [11] it was -0.0513; in [12] it was -0.0468. Further, the Bliss excess was -0.0558 in assay [13]; -0.0199 in assay [14]; -0.0133 in assay [15]; 0.0026 in assay [16]; -0.0085 in [17]; -0.0204 in assay [18]. Moreover, the Bliss excess in assay [19] is -0.0547; in assay [20] it was -0.0347.

For `Cc1c2c(nn1C)CSCc1cc(n(C)n1)CSc1cc(c3ccccc3c1)OCCCc1c(C(=O)O)n(C)c3c-2c(Cl)ccc13` [AZD5991] + C1CN(CCC1(C(=O)N[C@@H](CCO)C2=CC=C(C=C2)Cl)N)C3=NC=NC4=C3C=CN4 [Capivasertib] (first compound max 1 µM, 7x7, partner max 3 µM), the Bliss excess is 0.0057 in assay [1]; 0.045 in assay [2]; -0.0475 in assay [3]; -0.0056 in [4]; -0.0203 in assay [5]; 0.131 in [6]. Moreover, the Bliss excess is -0.065 in assay [7]; 0.138 in assay [8]; 0.0032 in assay [9]; 0.0122 in [10]; -0.0516 in assay [11]; -0.01 in [12]. Further, the Bliss excess in assay [13] was -0.0004; in assay [14], 0.0035; in assay [15], 0.0364; in assay [16], 0.0045; in assay [17], -0.0032; in assay [18], -0.0281. The Bliss excess in [19] is -0.0402; in assay [20], 0.0264.

As to `NC1(C(=O)N[C@@H](CCO)c2ccc(Cl)cc2)CCN(c2ncnc3[nH]ccc23)CC1` [Capivasertib] + CC(=O)c1c(C)c2cnc(Nc3ccc(N4CCNCC4)cn3)nc2n(C2CCCC2)c1=O [Palbociclib] (first compound max 10 µM, 7x7, partner max 10 µM), the Bliss excess in assay [1] was -0.0204; in [2] it was 0.0117; in assay [3], -0.0705; in assay [4] it was -0.0061; in [5], -0.0151; in [6], -0.0038. In addition, the Bliss excess is -0.0413 in assay [7]; -0.0207 in [8]; 0.0062 in assay [9]; -0.0617 in assay [10]; -0.0066 in assay [11]; -0.0261 in assay [12]. For the same compound, the Bliss excess in assay [13] is -0.0506; in assay [14] it was 0.0186; in assay [15] it was 0.0772; in assay [16], 0.0514; in assay [17], -0.0194; in assay [18], 0.0406. Further, the results for the Bliss excess in assay [19] and in assay [20] were -0.0405 and -0.0097, respectively.

Regarding `Cn1cnc2c(F)c(Nc3ccc(Br)cc3Cl)c(C(=O)NOCCO)cc21` [Selumetinib] + CC(C)n1c(=O)n(C)c2cnc3cc(F)c(-c4ccc(OCCCN5CCCCC5)nc4)cc3c21 [AZD1390] (first compound max 10 µM, 7x7, partner max 0.3 µM), the Bliss excess is -0.0642 in [1]; -0.0165 in assay [2]; -0.0327 in [3]; -0.0769 in assay [4]; -0.0238 in assay [5]; -0.0189 in [6]. The Bliss excess is -0.0225 in assay [7]; -0.0212 in assay [8]; -0.0455 in assay [9]; 0.0028 in assay [10]; -0.0279 in assay [11]; -0.008 in [12]. Further, the Bliss excess in assay [13] was -0.0001; in assay [14], -0.0582; in assay [15] it was -0.0312; in assay [16], 0.0128; in assay [17], -0.0152; in [18], -0.024. In addition, the values for the Bliss excess in assay [19] and in assay [20] were 0.0387 and -0.027, respectively.

`CN(CCO)CC[C@H](CSc1ccccc1)Nc1ccc(S(=O)(=O)NC(=O)c2ccc(N3CCC([C@@H](O)c4ccccc4-c4ccc(Cl)cc4)CC3)cc2)cc1S(=O)(=O)C(F)(F)F` [AZD4320] + Cn1cnc2c(F)c(Nc3ccc(Br)cc3Cl)c(C(=O)NOCCO)cc21 [Selumetinib] (first compound max 1 µM, 7x7, partner max 3 µM): the Bliss excess in assay [1] was found to be 0.0027; in assay [2], 0.0069; in [3] it was 0.0026; in [4], 0.0445; in assay [5] it was 0.0409; in assay [6] it was 0.0937. For the same compound, the Bliss excess in [7] was -0.075; in [8] it was 0.0195; in assay [9], -0.0118; in assay [10], 0.0027; in assay [11] it was 0.0201; in assay [12] it was 0.0496. Besides, the Bliss excess is -0.006 in assay [14]; 0.0831 in assay [15]; 0.0409 in assay [16]; 0.0319 in assay [17]; -0.0512 in [18]; 0.0717 in assay [19]. In addition, the Bliss excess in assay [20] was -0.0117.
